Like-named read-outs stand apart in the source and are kept apart here.
What was measured:
IL-6 = IL-6 secretion to the media by ELISA; format: cell-based, human; details: 100 μM, 24 h, control = 100
Description: We determined the effect of these compounds on the secretion of IL-6 in monocultures of MCF-7 cells, to establish the effect on cancer cells in monocultures of immune cells THP-1 and in co-cultures of MCF-7 and THP-1 (1:5 proportion). Assays were performed by ELISA using cell media after treatments with selected compounds at 100 μM for 24 h.

PD-L1 = PD-L1 (Homo sapiens, UniProt Q9NZQ7); experiment: Total PD-L1 relative quantification by flow cytometry in cancer cell lines; format: cell-based; design: Alexa Fluor® 647 Rabbit monoclonal Anti-PD-L1 (ab215251); endogenous in cells; host or cells: HT-29; details: 24 h, total PD-L1 relative to negative control (DMSO)
Sequence of PD-L1 (Q9NZQ7 19-290): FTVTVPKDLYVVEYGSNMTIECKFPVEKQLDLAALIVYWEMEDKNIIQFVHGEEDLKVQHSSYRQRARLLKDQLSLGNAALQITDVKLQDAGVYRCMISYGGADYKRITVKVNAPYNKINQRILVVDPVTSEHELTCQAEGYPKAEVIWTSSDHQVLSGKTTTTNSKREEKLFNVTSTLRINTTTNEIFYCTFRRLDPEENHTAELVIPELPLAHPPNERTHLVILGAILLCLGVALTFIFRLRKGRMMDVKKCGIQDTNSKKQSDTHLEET

A-549 = A-549 cell viability in co-culture with Jurkat T cells (flow cytometry count); format: cell-based, human; details: 24 h; for viability at 100 µM: Homo sapiens, A549, A-549/Jurkat T co-culture, IFN-γ stimulated, read-out: percentage of living A-549 cells relative to non-treated co-cultures
Method in brief: (§1)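 HT-29, MCF-7 or A-549 cells in IFN-γ (10 ng/mL) medium were co-cultured with 5 × 10^5 Jurkat T cells per well and 100 µM compound (DMSO control) for 24 h. Jurkat cells from the supernatant and trypsinized cancer cells were PFA-fixed and counted by flow cytometry. Living cells were expressed as % of untreated co-culture.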

membrane VEGFR-2 = experiment: Membrane VEGFR-2 relative quantification by flow cytometry in cancer cells co-cultured with Jurkat T cells; format: cell-based, human; details: 100 μM, 24 h; for %VEGFR2 (membrane): relative to non-treated co-cultures
Method in brief: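 Interferon γ-stimulated human cancer cells co-cultured with Jurkat T cells and treated 24 h with compounds at 100 μM. Cells then fixed in 4% paraformaldehyde and co-stained with Alexa Fluor 647 anti-PD-L1 and FITC anti-VEGFR-2. Membrane levels quantified together by flow cytometry.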

MCF-7 [1] = experiment: MCF-7 cell viability in co-culture with Jurkat T cells (flow cytometry count); format: cell-based, human; details: 24 h; for viability at 100 µM: Homo sapiens, MCF7, MCF-7/Jurkat T co-culture, IFN-γ stimulated, read-out: percentage of living MCF-7 cells relative to non-treated co-cultures; for inhibition rate of MCF-7 cell viability: co-cultured with Jurkat T cells, 100 μM
Method in brief: as §1

MCF-7 [2] = experiment: MCF-7 cell viability in co-culture with THP-1 cells; format: cell-based, human; details: for viability at 100 µM / inhibition at 100 µM: Homo sapiens; for viability at 100 µM: read-out: cancer cell viability (MCF-7); for inhibition at 100 µM: MCF7, read-out: cancer cell inhibition (MCF-7)
Description: The effect of the synthesized compounds on tumor cell proliferation in the presence of human monocytic leukemia cell line THP-1 was also studied. This assay was carried out using MCF-7 as the cancer cell line and different proportions of immune cells. Standard proportions for this assay were 1:5 cancer/immune, and we also carried out this assay using a 2:1 proportion of cancer cells as regards immune THP-1 cells. Assays were performed after 24 and 48 h of treatment and using 100 μM doses of selected compounds.
To study the effect of the compounds on the cell viability in co-culture with Jurkat T cells or THP-1 cells, 10^5 or 2 × 10^5 of the corresponding cancer cells line per well were seeded and incubated for 24 h, then the medium was changed by one cell culture medium supplemented with IFN-γ (10 ng/mL; human, Invitrogen®) and containing 5 × 10^5 or 10^5 Jurkat T cells or THP-1, respectively, per well and 100 µM of the corresponding compound or DMSO for the […] control. After 24 h/48 h of incubation, supernatants were collected to determine Jurkat T or THP-1 living cells, and on the other hand, corresponding cancer cells were collected with trypsin. Both types of suspension cells were fixed with 4% in PBS paraformaldehyde and counted by flow cytometry.

Jurkat T cells = experiment: Jurkat T cell viability in co-culture with cancer cells (flow cytometry count); format: cell-based; details: Homo sapiens, 24 h, read-out: percentage of living Jurkat cells relative to non-treated co-cultures
Method in brief: as §1

[3] = A549 co-cultured with Jurkat T cells
[4] = HT29 co-cultured with Jurkat T cells
[5] = MCF7 co-cultured with Jurkat T cells
[6] = MCF7, 24 h, 1:5 MCF-7/THP-1, 100 μM, 24 h, control = 100
[7] = MCF7, 24 h, 2:1 MCF-7/THP-1, 100 μM, 24 h, control = 100
[8] = MCF7, 48 h, 1:5 MCF-7/THP-1, 100 μM, 48 h, control = 100
[9] = MCF7, 48 h, 2:1 MCF-7/THP-1, 100 μM, 48 h, control = 100

Q: Which results are given for `Cc1c(COc2ccc(CN3CCCCC3C(=O)O)cc2Br)cccc1-c1ccccc1` (centres unmarked) [BMS-8, reference compound]?
A: Percentage of secreted IL-6 to the media (IL-6; MCF7 monoculture): 41 ± 65%; remaining activity at 100 µM (PD-L1; A549, A-549, 100 µM): 70 ± 8%; remaining activity at 100 µM (PD-L1; HT-29, 100 µM): 68 ± 10%; remaining activity at 100 µM (PD-L1; MCF7, MCF-7, 100 µM): 77 ± 3%; viability at 100 µM (A-549): 111 ± 9%; %VEGFR2 (membrane) (membrane VEGFR-2; [3]): 104 ± 9%; %VEGFR2 (membrane) (membrane VEGFR-2; [4]): 63 ± 4%; %VEGFR2 (membrane) (membrane VEGFR-2; [5]): 100 ± 2%; viability at 100 µM (MCF-7 [1]): 57 ± 7%; viability at 100 µM (MCF-7 [2]; [6]): 91 ± 30%; viability at 100 µM (MCF-7 [2]; [7]): 100 ± 4%; viability at 100 µM (MCF-7 [2]; [8]): 42 ± 5%; viability at 100 µM (MCF-7 [2]; [9]): 58 ± 10%; viability at 100 µM (Jurkat T cells; A-549/Jurkat T co-culture): 99 ± 9%; viability at 100 µM (Jurkat T cells; HT-29/Jurkat T co-culture): 148 ± 11%; viability at 100 µM (Jurkat T cells; MCF-7/Jurkat T co-culture): 53 ± 27%

Q: `COc1ccc(C(OCCc2ccc(CCn3cc(-c4ccc(Br)cc4)nn3)cc2)(c2ccccc2)c2ccc(OC)cc2)cc1` [Compound 3, 1-(4-(2-(bis(4-methoxyphenyl)(phenyl)methoxy)ethyl)phenethyl)-4-(4-bromophenyl)-1H-1,2,3-triazole] was tested. Which “Percentage of secreted IL-6 to the media” value (IL-6; MCF7 + THP-1 co-culture (1:5)) did it give?
A: 156 ± 12%

Q: And the “Percentage of secreted IL-6 to the media” value (IL-6; MCF7 monoculture)?
A: 92 ± 4%

Q: And the “Percentage of secreted IL-6 to the media” value (IL-6; THP-1 monoculture)?
A: 183 ± 5%

Q: And the remaining activity at 100 µM (PD-L1; A549, A-549, 100 µM)?
A: 58 ± 10%

Q: What about the remaining activity at 100 µM (PD-L1; HT-29, 100 µM) of the same compound?
A: 47 ± 1%

Q: What about the remaining activity at 100 µM (PD-L1; MCF7, MCF-7, 100 µM) of the same compound?
A: 108 ± 13%

Q: And the viability at 100 µM (A-549)?
A: 75 ± 7%

Q: What about the “inhibition rate of A-549 cell viability” value (A-549; co-cultured with Jurkat T cells, 100 μM) of the same compound?
A: active

Q: And the “%VEGFR2 (membrane)” value (membrane VEGFR-2; [3])?
A: 73 ± 4%

Q: And the “membrane VEGFR-2 inhibition rate” value (membrane VEGFR-2; A-549 co-cultured with Jurkat T cells)?
A: around 20%

Q: And the “%VEGFR2 (membrane)” value (membrane VEGFR-2; [4])?
A: 81 ± 7%

Q: What about the “membrane VEGFR-2 inhibition rate” value (membrane VEGFR-2; HT-29 co-cultured with Jurkat T cells) of the same compound?
A: around 20%

Q: What about the “%VEGFR2 (membrane)” value (membrane VEGFR-2; [5]) of the same compound?
A: 81 ± 4%

Q: And the “membrane VEGFR-2 inhibition rate” value (membrane VEGFR-2; MCF-7 co-cultured with Jurkat T cells)?
A: around 20%

Q: And the viability at 100 µM (MCF-7 [1])?
A: 45 ± 4%

Q: What about the “inhibition rate of MCF-7 cell viability” value (MCF-7 [1]) of the same compound?
A: around 60%

Q: What about the “cancer cell viability (MCF-7)” value (MCF-7 [2]; 1:5 MCF-7/THP-1, 100 μM, 24 h, control = 100, 100 µM) of the same compound?
A: 52 ± 7%

Q: What about the viability at 100 µM (MCF-7 [2]; [6]) of the same compound?
A: 50%

Q: And the viability at 100 µM (MCF-7 [2]; [7])?
A: 83 ± 9%

Q: And the viability at 100 µM (MCF-7 [2]; [8])?
A: 28 ± 2%

Q: And the viability at 100 µM (MCF-7 [2]; [9])?
A: 51 ± 17%

Q: And the inhibition at 100 µM (MCF-7 [2]; 2:1 MCF-7/THP-1, 100 μM, 48 h)?
A: 50%

Q: And the viability at 100 µM (Jurkat T cells; A-549/Jurkat T co-culture)?
A: 86 ± 4%

Q: And the viability at 100 µM (Jurkat T cells; HT-29/Jurkat T co-culture)?
A: 108 ± 33%

Q: What about the viability at 100 µM (Jurkat T cells; MCF-7/Jurkat T co-culture) of the same compound?
A: 75 ± 10%

Q: Which results are given for `COc1ccc(C(OCCc2ccc(CCn3cc(-c4cccc(Br)c4)nn3)cc2)(c2ccccc2)c2ccc(OC)cc2)cc1` [Compound 5, 1-(4-(2-(bis(4-methoxyphenyl)(phenyl)methoxy)ethyl)phenethyl)-4-(3-bromophenyl)-1H-1,2,3-triazole]?
A: Percentage of secreted IL-6 to the media (IL-6; MCF7 + THP-1 co-culture (1:5)): 137 ± 24%; Percentage of secreted IL-6 to the media (IL-6; MCF7 monoculture): 73 ± 29%; Percentage of secreted IL-6 to the media (IL-6; THP-1 monoculture): 173 ± 24%; remaining activity at 100 µM (PD-L1; A549, A-549, 100 µM): 70 ± 16%; remaining activity at 100 µM (PD-L1; HT-29, 100 µM): 38 ± 1%; remaining activity at 100 µM (PD-L1; MCF7, MCF-7, 100 µM): 87 ± 1%; viability at 100 µM (A-549): 105 ± 3%; %VEGFR2 (membrane) (membrane VEGFR-2; [3]): 92 ± 2%; %VEGFR2 (membrane) (membrane VEGFR-2; [4]): 85 ± 4%; %VEGFR2 (membrane) (membrane VEGFR-2; [5]): 85 ± 4%; viability at 100 µM (MCF-7 [1]): 37 ± 5%; viability at 100 µM (MCF-7 [2]; [6]): 52 ± 4%; viability at 100 µM (MCF-7 [2]; [7]): 107 ± 3%; viability at 100 µM (MCF-7 [2]; [8]): 42 ± 10%; viability at 100 µM (MCF-7 [2]; [9]): 69 ± 10%; inhibition at 100 µM (MCF-7 [2]; 2:1 MCF-7/THP-1, 100 μM, 48 h): 30%; viability at 100 µM (Jurkat T cells; A-549/Jurkat T co-culture): 93 ± 9%; viability at 100 µM (Jurkat T cells; HT-29/Jurkat T co-culture): 48 ± 1%; viability at 100 µM (Jurkat T cells; MCF-7/Jurkat T co-culture): 96 ± 8%

Q: Which “Percentage of secreted IL-6 to the media” value (IL-6; MCF7 + THP-1 co-culture (1:5)) does the source give for `COc1ccc(C(OCCc2ccc(CCn3cc(-c4ccccc4Br)nn3)cc2)(c2ccccc2)c2ccc(OC)cc2)cc1` [Compound 7, 1-(4-(2-(bis(4-methoxyphenyl)(phenyl)methoxy)ethyl)phenethyl)-4-(2-bromophenyl)-1H-1,2,3-triazole] here?
A: 115 ± 4%

Q: And the “Percentage of secreted IL-6 to the media” value (IL-6; MCF7 monoculture)?
A: 91 ± 39%

Q: What about the “Percentage of secreted IL-6 to the media” value (IL-6; THP-1 monoculture) of the same compound?
A: 158 ± 11%

Q: And the remaining activity at 100 µM (PD-L1; A549, A-549, 100 µM)?
A: 86 ± 20%

Q: What about the remaining activity at 100 µM (PD-L1; HT-29, 100 µM) of the same compound?
A: 45 ± 7%

Q: What about the remaining activity at 100 µM (PD-L1; MCF7, MCF-7, 100 µM) of the same compound?
A: 80 ± 4%

Q: And the viability at 100 µM (A-549)?
A: 100 ± 4%

Q: What about the “%VEGFR2 (membrane)” value (membrane VEGFR-2; [3]) of the same compound?
A: 89 ± 5%

Q: And the “%VEGFR2 (membrane)” value (membrane VEGFR-2; [4])?
A: 93 ± 3%

Q: And the “%VEGFR2 (membrane)” value (membrane VEGFR-2; [5])?
A: 100 ± 0%

Q: What about the viability at 100 µM (MCF-7 [1]) of the same compound?
A: 41 ± 4%

Q: And the “inhibition rate of MCF-7 cell viability” value (MCF-7 [1])?
A: around 60%

Q: And the viability at 100 µM (MCF-7 [2]; [6])?
A: 42 ± 10%

Q: And the viability at 100 µM (MCF-7 [2]; [7])?
A: 92 ± 11%

Q: What about the viability at 100 µM (MCF-7 [2]; [8]) of the same compound?
A: 41 ± 10%

Q: And the viability at 100 µM (MCF-7 [2]; [9])?
A: 60 ± 13%

Q: And the inhibition at 100 µM (MCF-7 [2]; 2:1 MCF-7/THP-1, 100 μM, 48 h)?
A: 40%

Q: What about the viability at 100 µM (Jurkat T cells; A-549/Jurkat T co-culture) of the same compound?
A: 79 ± 11%

Q: And the viability at 100 µM (Jurkat T cells; HT-29/Jurkat T co-culture)?
A: 70 ± 8%

Q: And the viability at 100 µM (Jurkat T cells; MCF-7/Jurkat T co-culture)?
A: 94 ± 12%
